Molecular target: T1, ABCG2 (breast cancer resistance protein) (Homo sapiens, UniProt Q9UNQ0)
T1 sequence (Q9UNQ0 1-655): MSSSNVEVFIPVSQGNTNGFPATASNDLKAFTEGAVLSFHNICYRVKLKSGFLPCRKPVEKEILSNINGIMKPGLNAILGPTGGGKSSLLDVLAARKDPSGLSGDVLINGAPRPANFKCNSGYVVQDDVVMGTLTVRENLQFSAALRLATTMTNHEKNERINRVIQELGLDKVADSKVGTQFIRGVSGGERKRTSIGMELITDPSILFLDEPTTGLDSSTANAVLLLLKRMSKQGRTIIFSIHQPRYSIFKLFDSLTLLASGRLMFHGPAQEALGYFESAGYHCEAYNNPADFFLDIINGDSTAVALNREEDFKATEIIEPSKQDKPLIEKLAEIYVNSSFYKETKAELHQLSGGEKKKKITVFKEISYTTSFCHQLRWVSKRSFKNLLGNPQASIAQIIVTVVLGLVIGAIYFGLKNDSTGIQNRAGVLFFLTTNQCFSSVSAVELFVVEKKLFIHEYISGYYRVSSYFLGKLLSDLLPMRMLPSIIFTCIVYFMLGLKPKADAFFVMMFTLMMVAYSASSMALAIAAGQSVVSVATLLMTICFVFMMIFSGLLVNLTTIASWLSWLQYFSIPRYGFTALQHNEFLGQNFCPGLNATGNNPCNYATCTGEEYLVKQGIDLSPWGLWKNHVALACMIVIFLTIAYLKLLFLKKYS
Test: competition of […]IAAP photoaffinity labeling
Type: binding

IC50: 90 nM
Structure (SMILES): CN1CCC(CNc2ccc3ncc(-c4cccc(OC(F)(F)F)c4)n3n2)CC1 [SGI-1776]

Source: paper PMC3821043 (Biochemical pharmacology, 2012)
